From BindingDB's records for doi:10.1016/j.bmcl.2010.04.020 (Kalypsys, 2010)

Assay: Inhibition of ROCK1 in human GTM3 cells by impedance assay

Row | EC50 [nM] | SMILES
1 | 1700 | CCC(N)c1ccc2sc(-c3ccnc(N)n3)c(C)c2c1 (racemic) [(+/-)-4-(5-(1-aminopropyl)-3-methylbenzo[b]thiophen-2-yl)pyrimidin-2-amine]
2 | 3600 | COc1cccc(C(N)c2ccc3sc(-c4ccnc(N)n4)c(C)c3c2)c1 (racemic) [(+/-)-4-(5-(amino(3-methoxyphenyl)methyl)-3-methylbenzo[b]thiophen-2-yl)pyrimidin-2-amine]
3 | 1400 | Cc1c(-c2ccnc(N)n2)sc2ccc(C(N)c3ccccc3)cc12 (racemic) [(+/-)-4-(5-(amino(phenyl)methyl)-3-methylbenzo[b]thiophen-2-yl)pyrimidin-2-amine]
4 | 2700 | Cc1c(-c2ccnc(N)n2)sc2ccc(C(N)c3cccc(Cl)c3)cc12 (racemic) [(+/-)--4-(5-(amino(3-chlorophenyl)methyl)-3-methylbenzo[b]thiophen-2-yl)pyrimidin-2-amine]
5 | 2600 | COc1ccc(C(N)c2ccc3sc(-c4ccnc(N)n4)c(C)c3c2)cc1 (racemic) [(+/-)--4-(5-(amino(4-methoxyphenyl)methyl)-3-methylbenzo[b]thiophen-2-yl)pyrimidin-2-amine]
6 | 1900 | Cc1cccc(C(N)c2ccc3sc(-c4ccnc(N)n4)c(C)c3c2)c1 (racemic) [(+/-)--4-(5-(amino(m-tolyl)methyl)-3-methylbenzo[b]thiophen-2-yl)pyrimidin-2-amine]
7 | > 10000 | COC(=O)c1cccc(Cc2ccc3sc(-c4ccnc(N)n4)c(C)c3c2)c1 [methyl 3-((2-(2-aminopyrimidin-4-yl)-3-methylbenzo[b]thiophen-5-yl)methyl)benzoate]

More lines, now with the values behind:

Row | SMILES | EC50 [nM]
8 | Cc1c(-c2ccnc(N)n2)sc2ccc(C(N)C(C)C)cc12 (racemic) [(+/-)-4-(5-(1-amino-2-methylpropyl)-3-methylbenzo[b]thiophen-2-yl)pyrimidin-2-amine] | 2100
9 | Cc1c(-c2ccnc(N)n2)sc2ccc(C(N)CC(C)C)cc12 (racemic) [(+/-)-4-(5-(1-amino-3-methylbutyl)-3-methylbenzo[b]thiophen-2-yl)pyrimidin-2-amine] | 1400
10 | CCCC(N)c1ccc2sc(-c3ccnc(N)n3)c(C)c2c1 (racemic) [(+/-)-4-(5-(1-aminobutyl)-3-methylbenzo[b]thiophen-2-yl)pyrimidin-2-amine] | 600
11 | Cc1c(-c2ccnc(N)n2)sc2ccc(C(C)N)cc12 (racemic) [(+/-)-4-(5-(1-aminoethyl)-3-methylbenzo[b]thiophen-2-yl)pyrimidin-2-amine] | 4200
12 | Cc1c(-c2ccnc(N)n2)sc2ccc(Cc3cccc(C(=O)O)c3)cc12 [3-((2-(2-aminopyrimidin-4-yl)-3-methylbenzo[b]thiophen-5-yl)methyl)benzoic acid] | > 10000
13 | Cc1c(-c2ccnc(N)n2)sc2ccc(Cc3cccc(O)c3)cc12 [3-((2-(2-aminopyrimidin-4-yl)-3-methylbenzo[b]thiophen-5-yl)methyl)phenol] | 2900
14 | Cc1c(-c2ccnc(N)n2)sc2ccc(Cc3cccc(C(F)(F)F)c3)cc12 [4-(3-methyl-5-(3-(trifluoromethyl)benzyl)benzo[b]thiophen-2-yl)pyrimidin-2-amine] | > 10000
15 | Cc1c(-c2ccnc(N)n2)sc2ccc(-c3ccccc3)cc12 [4-(3-methyl-5-phenylbenzo[b]thiophen-2-yl)pyrimidin-2-amine] | > 10000
16 | Cc1c(-c2ccnc(N)n2)sc2ccccc12 [4-(3-methylbenzo[b]thiophen-2-yl)pyrimidin-2-amine] | > 10000
17 | COc1ccccc1Cc1ccc2sc(-c3ccnc(N)n3)c(C)c2c1 [4-(5-(2-methoxybenzyl)-3-methylbenzo[b]thiophen-2-yl)pyrimidin-2-amine] | > 10000
18 | COc1cccc(Cc2ccc3sc(-c4ccnc(N)n4)c(C)c3c2)c1 [4-(5-(3-methoxybenzyl)-3-methylbenzo[b]thiophen-2-yl)pyrimidin-2-amine] | > 10000
19 | COc1ccc(Cc2ccc3sc(-c4ccnc(N)n4)c(C)c3c2)cc1 [4-(5-(4-methoxybenzyl)-3-methylbenzo[b]thiophen-2-yl)pyrimidin-2-amine] | > 10000
20 | Cc1c(-c2ccnc(N)n2)sc2ccc(CN)cc12 [4-(5-(aminomethyl)-3-methylbenzo[b]thiophen-2-yl)pyrimidin-2-amine] | > 10000
21 | Cc1c(-c2ccnc(N)n2)sc2ccc(Cc3ccccc3)cc12 [4-(5-benzyl-3-methylbenzo[b]thiophen-2-yl)pyrimidin-2-amine] | > 10000
